{
  "source": "patent US5817692A",
  "about": "“Endoperoxides useful as antiparasitic agents” (priority 1996, dated 1998)",
  "data": [
    {"test_system": "Plasmodium falciparum", "assay": "antimalarial activity, tritiated-hypoxanthine incorporation assay in human red blood cells", "type": "cell-based", "conditions": "Erythrocyte, read-out: IC50 (inhibition of 50% of the replication of Plasmodium falciparum)", "experimental": "(§1) The protozoan Plasmodium falciparum is a causative agent of malaria, the single most critical infectious disease of mankind. The antimalarial activity of the endoperoxides was determined according to the method of Desjardins et al. (16) as modified by Milhous et al. (17). Briefly, the antimalarial activity of the endoperoxides was tested in a tritiated-hypoxanthine incorporation assay by determining the concentration of the test compound needed to inhibit 50% of the replication of Plasmodium falciparum (IC50) in human red blood cells.\nIt is particularly noted that JHU 2886 has an excellent therapeutic index (ratio of activity to toxicity). At 1 μM, JHU 2886 has a therapeutic index of 70/0, whereas at the same concentration artimisinin has a therapeutic index of 76/10 (7.6), and atovaquone has a therapeutic index of only 95/17 (5.6). […] The first two compounds are known while the following five are being disclosed for the first time. […] Compounds of this formula wherein Ar is p-FCH2 Ph or p-HOCH2 Ph and X is CH2 are also expected to be particularly useful. […]", "units": {"IC50": "nM"}, "values": [
      {"smiles": "C1=CC2(c3ccccc3)CCCC1(c1ccccc1)OO2", "IC50": 150},
      {"smiles": "CC1(C)CC2(c3ccccc3)CCC(c3ccccc3)(C1)OO2", "note": "[Ar = Ph, X = C(CH3)2]", "IC50": "> 1000"},
      {"smiles": "c1ccc(C23CCCC(c4ccccc4)(CC2)OO3)cc1", "note": "[Ar = Ph, X = CH2]", "IC50": 89},
      {"smiles": "O=S1(=O)CC2(c3ccccc3)CCC(c3ccccc3)(C1)OO2", "note": "[Ar = Ph, X = SO2]", "IC50": "> 1000"},
      {"smiles": "c1ccc(C23CCC(c4ccccc4)(CC4(CCCCC4)C2)OO3)cc1", "note": "[Ar = Ph, X = drawing 40]", "IC50": "> 1000"},
      {"smiles": "Fc1ccc(C23CCCC(c4ccc(F)cc4)(CC2)OO3)cc1", "note": "[Ar = p-FPh, X = CH2]", "IC50": 38},
      {"smiles": "COc1ccc(C23CCCC(c4ccc(OC)cc4)(CC2)OO3)cc1", "note": "[Ar = p-MeOPh, X = CH2]", "IC50": 62},
      {"smiles": "C1=CC2(c3ccccc3)CC1(c1ccccc1)OO2", "note": "[n = 1]", "IC50": 650},
      {"smiles": "C1=CC2(c3ccccc3)CCC1(c1ccccc1)OO2", "note": "[n = 2]", "IC50": 150},
      {"smiles": "C1=CC2(c3ccccc3)CCCCC1(c1ccccc1)OO2", "note": "[n = 4]", "IC50": 410}
    ]},
    {"test_system": "P. falciparum NF54", "assay": "antimalarial activity, P. falciparum NF54 parasites in vitro", "type": "cell-based", "conditions": "Plasmodium falciparum, NF54, read-out: Antimalarial Activity IC50", "experimental": "as §1\n(§2) Tables 4 and 5 show the structures and antimalarial activities of unsaturated and saturated bicyclic [2.2.2] endoperoxides of the invention. Compounds of this formula wherein R and R' are identical are particularly preferred. It is expected that compounds wherein R and R' are selected from the groups [drawing 33] will be especially useful. […]", "units": {"IC50": "nM"}, "values": [
      {"smiles": "CC(C)(C)[Si](C)(C)OCc1ccc(C23CCCC(c4ccccc4)(CC2)OO3)cc1", "note": "(centres unmarked) [Table 6, R = CH2 OSiMe2 Bu-t]", "IC50": 99},
      {"smiles": "CC(C)(C)[Si](C)(C)Oc1ccc(C23CCCC(c4ccccc4)(CC2)OO3)cc1", "note": "(centres unmarked) [Table 6, R = OSiMe2 Bu-t]", "IC50": 290}
    ]},
    {"test_system": "P. falciparum NF54", "assay": "antimalarial activity, P. falciparum NF54 parasites in vitro", "type": "cell-based", "conditions": "Plasmodium falciparum; P. falciparum NF54 parasites in vitro; read-out: Antimalarial Activity IC50", "experimental": "as §1, §2", "units": {"IC50": "nM"}, "values": [
      {"smiles": "c1ccc(C23CCCC(c4ccccc4)(CC2)OO3)cc1", "note": "[Ar = Ph, X = CH2]", "IC50": 89},
      {"smiles": "Fc1ccc(C23C=CC(c4ccc(F)cc4)(CC2)OO3)cc1", "note": "[R = F, R' = F]", "IC50": 70},
      {"smiles": "Fc1ccc(C23C=CC(c4ccccc4)(CC2)OO3)cc1", "note": "(centres unmarked) [R = H, R' = F]", "IC50": 71},
      {"smiles": "Cc1ccc(C23C=CC(c4ccc(C)cc4)(CC2)OO3)cc1", "note": "[R = Me, R' = Me]", "IC50": 140},
      {"smiles": "FC(F)(F)c1ccc(C23CCC(c4ccc(C(F)(F)F)cc4)(CC2)OO3)cc1", "note": "[Table 5, R = CF3]", "IC50": 82},
      {"smiles": "Fc1ccc(C23CCC(c4ccc(F)cc4)(CC2)OO3)cc1", "note": "[Table 5, R = F]", "IC50": 63},
      {"smiles": "c1ccc(C23CCC(c4ccccc4)(CC2)OO3)cc1", "note": "[Table 5, R = H]", "IC50": 210},
      {"smiles": "OCc1ccc(C23CCCC(c4ccccc4)(CC2)OO3)cc1", "note": "(centres unmarked) [Table 6, R = CH2 OH]", "IC50": 81},
      {"smiles": "Fc1ccc(C23CCCC(c4ccccc4)(CC2)OO3)cc1", "note": "(centres unmarked) [Table 6, R = F]", "IC50": 42},
      {"smiles": "Oc1ccc(C23CCCC(c4ccccc4)(CC2)OO3)cc1", "note": "(centres unmarked) [Table 6, R = OH]", "IC50": "> 2500"},
      {"smiles": "C1=CC2(c3ccccc3)CCC1(c1ccccc1)OO2", "note": "[n = 2]", "IC50": 180}
    ]}
  ]
}
